# Measurements reported in patent publication US20150094225A1, “METHOD OF OBTAINING INFORMATION FOR IDENTIFYING TUMOR CELL UNDERGOING EPITHELIAL-MESENCHYMAL TRANSITION IN SAMPLE, METHOD OF IDENTIFYING TUMOR CELL UNDERGOING EPITHELIAL-MESENCHYMAL TRANSITION IN SAMPLE, METHOD OF DIAGNOSING SUBJECT HAVING TUMOR CELL UNDERGOING EPITHELIAL-MESENCHYMAL TRANSITION AND …” (Samsung Electronics Co., Ltd., priority 2013, published 2015).
# Like-named read-outs stand apart in the source and are kept apart here.
# Columns and labels:
# Type in all cases: cell-based
# [1] = tested on: breast cancer cells (MCF7); test: western blotting of EMT-induced MCF7 cells cultured in TSA- or CoCl2-containing medium
# [2] = tested on: prostate cancer cells (Du145); test: western blotting and RT-PCR of EMT-induced DU145 cells cultured in medium including TSA, SB or CoCl2
# [3] = tested on: breast cancer cells (MCF7); test: RT-PCR of EMT-induced MCF7 cells cultured in medium including TSA, SB or CoCl2; conditions: for expression of EpCAM / expression of Twist / expression of snail: 0.5 μM TSA or 2.5 mM SB
# [4] = tested on: lung cancer cells (NCI-1650); test: western blotting of EMT-induced NCI-1650 cells cultured in TSA-containing medium; conditions: NCI-1650, western blotting, 0.5 μM TSA, one day
# [5] = tested on: lung cancer cells (NCI-1650); test: RT-PCR of EMT-induced NCI-1650 cells cultured in TSA-containing medium; conditions: NCI-1650, RT-PCR, 0.5 μM TSA, one day
# [6] = MCF7, western blotting (FIG. 15: western/RT-PCR not told apart), 0.5 μM TSA or 400 μM CoCl2, one day
# [7] = DU145, western blotting/RT-PCR, 0.5 μM TSA, 2.5 mM SB or 400 μM CoCl2, one day
# [8] = MCF7, RT-PCR, 0.5 μM TSA or 400 μM CoCl2, one day
# [9] = MCF7, RT-PCR, 0.5 μM TSA, 2.5 mM SB or 400 μM CoCl2, one day
smiles,measurement,setting,value
[Cl-].[Cl-].[Co+2] [CoCl2],expression of HIF-1α,[1],gradually increased
same,expression of N-cadherein,[1],gradually increased
same,expression of snail,[1],gradually increased
same,expression of ACOT1,[2],decreased
same,expression of EpCAM,[2],increased
same,expression of PTPLB,[2],decreased
same,expression of SCD1,[2],increased
same,expression of snail,[2],increased
same,expression of ACACA,[3],decreased
same,expression of ACOT1,[3],decreased
same,expression of FASN,[3],decreased
same,expression of PPARγ,[3],decreased
same,expression of PTPLB,[3],decreased
same,expression of SCD1,[3],increased
"CC(/C=C/C(=O)NO)=C\[C@@H](C)C(=O)c1ccc(N(C)C)cc1 [TSA, Trichostatin A]",expression of N-cadherein,[4],gradually increased
same,expression of Vimentin,[4],gradually increased
same,expression of snail,[4],gradually increased
same,expression of N-cadherein,[1]; [6],gradually increased
same,expression of snail,[1]; [6],gradually increased
same,expression of E-cadherin,"[1]; MCF7, western blotting, 0.5 μM TSA, cultured one day",decreased
same,expression of ACOT1,[2]; [7],decreased
same,expression of EpCAM,[2]; [7],increased
same,expression of PTPLB,[2]; [7],decreased
same,expression of SCD1,[2]; [7],increased
same,expression of snail,[2]; [7],increased
same,expression of ACACA,[3]; [8],increased
same,expression of PPARγ,[3]; [8],decreased
same,expression of SCD1,[3]; [8],increased
same,expression of EpCAM,"[3]; MCF7, RT-PCR, one day",decreased
same,expression of Twist,"[3]; MCF7, RT-PCR, one day",increased
same,expression of snail,"[3]; MCF7, RT-PCR, one day",increased
same,expression of ACOT1,[3]; [9],decreased
same,expression of PTPLB,[3]; [9],decreased
same,expression of N-cadherin,"[3]; MCF7, RT-PCR, 0.5 μM TSA, one day",increased
same,expression of ACOT1,[5],decreased
same,expression of PTPLB,[5],decreased
same,expression of SCD1,[5],increased
"CCCC(=O)[O-].[Na+] [SB, sodium butyrate]",expression of ACOT1,[2]; [7],decreased
same,expression of EpCAM,[2]; [7],increased
same,expression of PTPLB,[2]; [7],decreased
same,expression of SCD1,[2]; [7],increased
same,expression of snail,[2]; [7],increased
same,expression of EpCAM,"[3]; MCF7, RT-PCR, one day",decreased
same,expression of Twist,"[3]; MCF7, RT-PCR, one day",increased
same,expression of snail,"[3]; MCF7, RT-PCR, one day",increased
same,expression of ACOT1,[3]; [9],decreased
same,expression of PTPLB,[3]; [9],decreased
